Reference: patent US7635714B2, “Methods of treating dyschezia” (priority 2002, dated 2009)

Key:
normal rabbits (Kbl:JW) = assay: Acceleratory effects on defecation in normal rabbits (stool weight, water content of stools); type: in vivo, rabbit
Description: To study the difference of effects between GM-611 and a laxative, sennoside (sennoside solution (trade name), Taisho Pharm. Ind., Ltd.) was used as a laxative to compare with acceleratory effects of GM-611 on defecation. More specifically, normal rabbits were orally administered with GM-611 or sennoside and then measured for the weight and water content of stools. Normal rabbits (Kbl:JW), in groups of 13 to 15, were orally administered with vehicle (3 w/v % gum arabic suspension), GM-611 (1.25 mg/kg, 2.5 mg/kg, 5 mg/kg, 10 mg/kg), vehicle (purified water), or sennoside (12 mg/kg, 24 mg/kg, 48 mg/kg). The stool weight was then measured every 4 hours until 8 hours after administration. Also, their stools were collected, dried in a dry oven (at 120° C. for 24 hours or longer) and then the dry stool weight was measured to calculate the water content of stools (%) according to the following formula: ((wet stool weight [g]−dry stool weight [g]))/wet stool weight [g])×100.

healthy male volunteers = assay: Acceleratory effect on defecation in healthy volunteers (Phase I, repeated oral administration); type: in vivo, human
Procedure: The acceleratory effect of GM-611 on defecation was studied by repeated oral administration of GM-611 in Phase I trials. Healthy male volunteers, in groups of 6, were orally administered for 10 days with placebo or GM-611 (5 mg, 10 mg, 20 mg) on a three-times-a-day basis together with 150 mL water at 30 minutes before each meal, provided that the volunteers were administered once before breakfast on the first and tenth days. The volunteers were then monitored for their defecation during the period of administration. The acceleratory effect on defecation was assessed by the daily frequency of defecation, the number of days that at least one defecation was observed (the number of defecation days), and stool condition (watery diarrhea, muddy diarrhea, muddy soft stool, formed soft stool, normal stool, hard stool, very hard stool). It should be noted that in this test, the subjects were allocated at random to each test group and tested in a double-blind manner.

normal dogs (beagle) = assay: Acceleratory effect on defecation in normal dogs (time until the first defecation); type: in vivo, dog
Procedure: In addition to the studies in rabbits, the acceleratory effect of GM-611 on defecation was also studied in normal dogs. Five beagle dogs were each catheterized to insert an intragastric catheter (Chugai Pharmaceutical Co., Ltd., 8.3-9.9 kg, 2 males and 3 females). Each dog was fed with pellets (CD-5 (CLEA Japan, Inc.), about 250 g) at 9:00 a.m. and then monitored for its defecation immediately after feeding. One hour after feeding, the animals […] defecation within 1 hour were intragastrically administered via the catheter with vehicle (3 w/v % gum arabic suspension) or GM-611 (0.3 mg/kg, 1 mg/kg, 3 mg/kg) and then measured for the time until the first defecation after administration.

[1] = system: rabbits with morphine-induced defecation dysfunction; assay: Improving effect on morphine-induced defecation dysfunction in rabbits (stool weight); type: in vivo, rabbit; details: morphine 1 mg/kg s.c.
Procedure: Effects on defecation dysfunction can be studied using an animal model with morphine-induced defecation dysfunction. To study the effect of GM-611 on defecation dysfunction, rabbits were subcutaneously administered with morphine (Anpec (trade name), Dainippon Pharmaceutical Co., Ltd.) to induce defecation dysfunction and then the stool weight was measured to evaluate the acceleratory effect of GM-611 on defecation in the model. Rabbits (Kbl:JW) were subcutaneously administered with vehicle (physiological saline) or morphine (1 mg/kg) and fed for 30 minutes (feeding stimulation), followed by oral administration of vehicle (3 w/v % gum arabic suspension) or GM-611 at a dose of 1.25 mg/kg, 2.5 mg/kg, 5 mg/kg, 10 mg/kg or 20 mg/kg. The stool weight for 2.5 hours after administration was measured (11 rabbits in each group) to examine the improving effect of GM-611 on morphine-induced defecation dysfunction.

[2] = compared with erythromycin; cited from earlier work

For `CC[C@H]1OC(=O)[C@H](C)[C@@H](O[C@H]2C[C@@](C)(OC)[C@@H](O)[C@H](C)O2)[C@H](C)[C@@H](O[C@@H]2O[C@H](C)C[C@H](N(C)C(C)C)[C@H]2O)[C@@]2(C)CC(C)=C(O2)[C@H](C)C(=O)[C@]1(C)OC.CC[C@H]1OC(=O)[C@H](C)[C@@H](O[C@H]2C[C@@](C)(OC)[C@@H](O)[C@H](C)O2)[C@H](C)[C@@H](O[C@@H]2O[C@H](C)C[C@H](N(C)C(C)C)[C@H]2O)[C@@]2(C)CC(C)=C(O2)[C@H](C)C(=O)[C@]1(C)OC.O=C(O)/C=C/C(=O)O` [GM-611, erythromycin, 8,9-didehydro-N-demethyl-9-deoxo-6,11-dideoxy-6,9-epoxy-12-O-methyl N-(1-methylethyl)-11-oxo-, (2E)-2-butenedioate (2:1)], the “water content of stool” value (normal rabbits (Kbl:JW); oral 1.25-10 mg/kg GM-611) was “no change”, the stool weight (normal rabbits (Kbl:JW); oral 1.25-10 mg/kg, 0 to 4 hours after administration, vs vehicle) was “dose-dependently increased” and the “average number of defecation days” value (healthy male volunteers; healthy male volunteers, 5, 10, 20 mg three times a day oral for 10 days, averaged over all GM-611 groups, placebo 6.0) was 8.2. The “average daily frequency of defecation” value (healthy male volunteers; healthy male volunteers, 5, 10, 20 mg three times a day oral for 10 days, placebo 0.7) was 1.0, the stool condition (healthy male volunteers; healthy male volunteers, GM-611-treated groups vs placebo-treated group) was “no change” and the stool condition (normal dogs (beagle); at first defecation after administration) was “not diarrhea”. For the same molecule, the “time until the first defecation after administration” value (normal dogs (beagle); intragastric 0.3, 1, 3 mg/kg, 1 hour after feeding) was “dose-dependently decreased”, the “stool weight at the maximum dose” value ([1]; GM-611 20 mg/kg oral, 2.5 hours) was “reached the same level as observed in the morphine-untreated group” and the “morphine-induced defecation dysfunction (stool weight for 2.5 hours after administration)” value ([1]; feeding stimulation, oral GM-611 1.25-20 mg/kg) was “dose-dependently improved”. The antibacterial action [2] was “weaker antibacterial action than erythromycin”.
For `CN1CC[C@]23c4c5ccc(O)c4O[C@H]2[C@@H](O)C=C[C@H]3[C@H]1C5` [morphine, reference compound], the “defecation enhanced by feeding stimulation (stool weight)” value ([1]; vs physiological saline) was “significantly inhibited”.
In the case of sennoside [reference compound], the “water content of stools” value (normal rabbits (Kbl:JW); oral sennoside 12-48 mg/kg) is reported as “increased dose-dependently” and the stool weight (normal rabbits (Kbl:JW); oral sennoside 12-48 mg/kg, significant during 4 to 8 hours after administration (delayed)) is reported as “dose-dependently increased”.
